According to patent US20100111965A1, “COMBINATION THERAPY” (FUSION ANTIBODIES LIMITED, priority 2006, published 2010):

What was measured:
[1] = test system: RKO +/+; assay: Semi quantitative RT-PCR of AREG RNA in RKO cells after chemotherapy; format: cell-based, human; details: 48 h after treatment, 7.5 μM
Protocol: FIG. 1A illustrates analysis of AREG and beta actin RNA expression in RKO +/+ with/without either a 48 hour CPT11 treatment or 5-Fu treatment. RNA levels were analyzed following 35 cycle of PCR to determine relative differences in expression between treated and untreated samples;
(§1) Cells in a log phase of growth were seeded into T75 flask at ˜20% confluence and incubated overnight to allow adherence to the plate. […] Chemotherapy was substituted with saline in control flasks. After different time exposure to chemotherapy the cells were harvested, washed 3 times in PBS and total RNA was isolated using the RNA TAT-60 reagent according to the manufacturer instructions.
(§2) Reverse transcription was performed with 2.5 μg of RNA using a High Capacity cDNA Archive kit (Applied Biosystem) according to the instruction of the manufacturer.
(§3) Semi quantitative RT-PCR was performed using a PTC 225 Gradient Cycler (MJ Research Incorporated. The PCR mixture, in a final volume of 25 μL, contains 12.5 μL of 2× Biomix (Bioline, UK), 2 μL of primers (10 μmol/L), 1 μL of cDNA and 9.5 μL of dH2O). PCR conditions were initial denaturation step of 95 C for 10 minutes, followed by 35 cycles of 95° C. for 30 sec for denaturation; as annealing step 55° C. for 30 sec; and extension at 72° C. for 90 sec, with a final extension of 72° C. for 10 minutes. […]

[2] = test system: HCT116; assay: RT-PCR of AREG RNA in HCT116 cells after chemotherapy; format: cell-based, human; details: IC50 dose, 48 hours
Protocol: FIG. 1B illustrates analysis of AREG and beta actin RNA expression in HCT116 +/+ with/without a 48 hour CPT11 treatment. RNA levels were analyzed following 35 cycles of PCR to determine relative differences in expression between treated and untreated samples;
FIG. 6 illustrates AREG upregulation following chemotherapeutic challenge in A) HT29, B) HCT116 and C) MDA-MB231 cells. Cells were treated with/without chemotherapy for 48 hours. RT-PCR was performed with 1 μg of total RNA using primer pairs specific for the human AREG gene or GAPDH. The PCR products were separated on 1.5% agarose gel electrophoresis and visualized by ethidium bromide staining.
as §1, with “instructions. […]” for “instructions.”
Semi quantitative RT-PCR was performed using a PTC 225 Gradient Cycler (MJ Research Incorporated. The PCR mixture, in a final volume of 25 μL, contains 12.5 μL of 2× Biomix (Bioline, UK), 2 μL of primers (10 μmol/L), 1 μL of cDNA and 9.5 μL of dH2O). […]

[3] = test system: H460 lung cancer cells; assay: RT-PCR of AREG RNA in H460 lung cancer cells after chemotherapy; format: cell-based; details: 48 hour treatment
Protocol: FIG. 5 illustrates analysis of AREG and beta actin RNA expression in H460 lung cancer cells with/without either a 48 hour CPT11 treatment or 5-Fu treatment. RNA levels were analyzed following 35 cycle of PCR to determine relative differences in expression between treated and untreated samples.
as §1, §2, §3

[4] = test system: HCT 116 +/+; assay: Confocal microscopy of AREG expression in HCT116 after CPT-11; format: cell-based, human; details: 24 h and 48 h, compared to untreated controls
[5] = test system: H460 lung carcinoma cell line; assay: FACS analysis of cell surface AREG in H460 with or without irinotecan; format: cell-based; details: 2.5 μM for 48 hours
Protocol: Following treatment cells were stained with AREG monoclonal antibodies and analysed by FACS
After 48 hours cells were washed in PBS and blocked for 20 minutes in Normal Goat Serum. 5×10^5 cells were incubated with AREG antibodies or isotype control for 2 hours and washed in PBS-T. The cells were incubated with a FITC conjugated goat anti-mouse antibody for 1 hour and washed in PBS-T before analysis on BD FACS canto.

Q: What does the source list for `CCc1c2c(nc3ccc(OC(=O)N4CCC(N5CCCCC5)CC4)cc13)-c1cc3c(c(=O)n1C2)COC(=O)[C@]3(O)CC` [CPT-11, irinotecan]?
A: AREG RNA expression (RT-PCR) [1]: upregulation; AREG mRNA expression (RT-PCR) [2]: up-regulation; AREG RNA expression (RT-PCR, 35 cycles) [3]: enhanced expression of AREG; AREG expression levels (confocal microscopy) [4]: increasing levels of expression at each time point; AREG surface expression levels (FACS), detected by clones 3H5 and 3F8 [5]: up-regulation in expression levels
